IC50 data for 27 compounds are collected here from patent US5045548A, “Quinolyl methoxy compounds and their use as antiasthmatic agents” (Fujisawa Pharmaceutical Company, Ltd., priority 1987, dated 1991).

SMILES strings stand for the structures. Where a name gives a salt, the structure may show the parent alone.

The test system of the first experiment is SRS-A (Slow Reacting Substance of Anaphylaxis) synthesis in rat polymorpholeukocyte (PMN). The experiment can be described thus: Inhibitory Activity of SRS-A synthesis in rat polymorpholeukocyte (PMN) using the calcium ionophore A23187 (i-LTC4 by radioimmunoassay). It counts as cell-based, rat (male Sprague-Dawley). Particulars: 10 μM A23187, 15 min, 37° C., hydrochloride. The protocol: Test I: Inhibitory Activity of SRS-A (Slow Reacting Substance of Anaphylaxis) synthesis in rat polymorpholeukocyte (PMN) of using the calcium ionophore Male Sprague-Dawley rats weighing 250-300 g were anesthetized with ether and each was injected intraperitoneally with 20 ml of 0.1% clycogen (from Oyster). After 20 hours the rats were sacrificed and PMN were recovered in rinse of the peritoneal cavity with 10 ml Dulbeccos PBS (components in g/L: CaCl2 0.1, KH2 PO4 0.2, MgCl2.6H2 O 0.1, NaCl 8.0, Na2 HPO4.7H2 O 2.16; pH7.4). These rinses were filtered through nylon wool filter and centrifuged for 5 min at 1000 xg. The pellet was suspended in Dulbeccos PBS and centrifuged for 5 min at 1000 xg. The pellet was resuspended in Dulbeccos PBS and adjusted the cell concentration to 10^7 cells/ml with Dulbeccos PBS. Samples were dissolved in ethanol and dispersed in Dulbeccos PBS to give a concentration of 10^-10 -10^-5 M Antibiotic A23187; calcium ionophor ([…] Diagnostics) (hereinafter referred to A23187) in DMSO(10mM) was diluted with Dulbeccos PBS to give the concentration of 1 mM. Aliquots of the cell suspension (1×10^7 cells/ml, 0.98 ml) were equilibrated for 30 min at 37° C. Solution of sample(10 μl) was added and incubated for 15 min at 37° C. before the addition of 10 μl of A23187 solution. Thus the final incubation volume of 1 ml contained approximately 1×10^7 cells, 10^-10 -10^-5 M samples and 10 μM A23187. Incubation with A23187 were continued for 15 min at 37° C. The reactions were terminated by setting the assay tubes in ice bath to chill as rapidly as possible to 4° C. The test tubes were centrifuged at 1500 xg for 5 min at 4° C. and decanted the supernatants into the tubes and kept cold prior to assaying. The concentration of i-LTC4 in the cell-free supernatants from the incubations were determined by specific radioimmunoassay. The mean values of i-LTC4 (these incubations were carried out in duplicate) of each sample were calculated and the effect of samples on the synthesis of the leukotrienes was presented as a percentage of the value in the absence of samples.
As to `CCCCC1(CCCC)CCc2c(OCc3ccc4ccccc4n3)cccc2C1O` (single isomer, unassigned; (+)) [Example 41, (+)-2,2-dibutyl-5-(2-quinolylmethoxy)-1,2,3,4-tetrahydro-1-naphthol hydrochloride], the IC50 was found to be 5.6 nM.

The experiment is the same for the next values; noted with them: Rattus norvegicus, 0.25 h, 10 μM A23187, 15 min, 37° C.
As for `CCCCC1(CCCC)Cc2c(OCc3ccc4ccccc4n3)cccc2C1=O` [Example 5, 2,2-Dibutyl-4-(2-quinolylmethoxy)-1-indanone hydrochloride], the IC50 was found to be 280 nM.

Turning to `CCCCC1(CCCC)CCc2c(OCc3ccc(C(N)=O)cc3)cccc2C1O` (stereo not drawn) [Example 16, 2,2-Dibutyl-5-(4-carbamoylbenzyloxy)-1,2,3,4-tetrahydro-1-naphthol], the IC50 was 370 nM.

In the case of `CCCCC1CCc2ccc(OCc3ccc4ccccc4n3)cc2C1=O` (stereo not drawn) [Example 23, 2-Butyl-3,4-dihydro-7-(2-quinolylmethoxy)-1(2H)-naphthalenone hydrochloride], the IC50 came to 1100 nM.

As for `CCCCC1(CCCC)CCc2c(OCc3ccc4ccccc4n3)ccc(O)c2C1O` (stereo not drawn) [Example 36, 2,2-Dibutyl-8-hydroxy-5-(2-quinolylmethoxy)-1,2,3,4-tetrahydro-1-naphthol hydrochloride], the IC50 worked out at 120 nM. The same measure, in the same setting: with `CCCC1(CCC)CCc2c(OCc3ccc4ccccc4n3)cccc2C1O` (stereo not drawn) [Example 13, 2,2-Dipropyl-5-(2-quinolylmethoxy)-1,2,3,4-tetrahydro-1-naphthol] the figure was 15 nM.

On to `CCCCC1(CCCC)CCc2c(OCc3ccc4ccccc4n3)ccc(O)c2C1=O` [Example 38, 2,2-Dibutyl-3,4-dihydro-8-hydroxy-5-(2-quinolylmethoxy)-1(2H)-naphthalenonehydrochloride], for which the IC50 was found to be 360 nM. For the compound `CCCCC1CCc2c(OCc3ccc4ccccc4n3)cccc2C1O` (stereo not drawn) [Example 20, 2-Butyl-5-(2-quinolylmethoxy)-1,2,3,4-tetrahydro-1-naphthol], the IC50 is 83 nM.

On to `CCCCC1(CCCC)CCc2c(OCc3ccccn3)cccc2C1O` (stereo not drawn) [Example 7, 2,2-dibutyl-5-(2-pyridylmethoxy)-1,2,3,4-tetrahydro-1-naphthol], for which the half-inhibitory concentration (IC50) stood at 81 nM. As for `CCCCC1(CCCC)CCc2c(OCc3ccncc3)cccc2C1O` (stereo not drawn) [Example 12, 2,2-Dibutyl-5-(4-pyridylmethoxy)-1,2,3,4-tetrahydro-1-naphthol], the half-inhibitory concentration (IC50) was 120 nM. For the compound `CCCCC1(CCCC)CCc2c(OCc3nc4ccccc4n3C)cccc2C1O` (stereo not drawn) [Example 26, 2,2-Dibutyl-5-[2-(1-methylbenzimidazolyl)methoxy]-1,2,3,4-tetrahydro-1-naphthol], the IC50 came out at 210 nM.

For `CCCCC1(CCCC)CCc2c(OCc3ccc4ccccc4n3)ccc(Cl)c2C1O` (stereo not drawn) [Example 33, 8-chloro-2,2-dibutyl-5-(2-quinolylmethoxy)-1,2,3,4-tetrahydro-1-naphthol], the IC50 was 14 nM. The same measure, in the same setting: for `CCCCC1(CCCC)CCc2c(OCc3ccc4ccccc4n3)cccc2C1O` (stereo not drawn) [Example 6, 2,2-dibutyl-5-(2-quinolylmethoxy)-1,2,3,4-tetrahydro-1-naphthol] the value was 8.7 nM.

As for `CCCCC1(CCCC)CCc2c(OCc3ccccc3C(N)=O)cccc2C1O` (stereo not drawn) [Example 8, 2,2-dibutyl-5-(2-carbamoylbenzyloxy)-1,2,3,4-tetrahydro-1-naphthol], the IC50 turned out to be 160 nM. For the compound `CCCCC1CCc2c(OCc3ccc4ccccc4n3)cccc2C1=O` (stereo not drawn) [Example 17, 2-Butyl-3,4-dihydro-5-(2-quinolylmethoxy)-1(2H)-naphthalenone], the IC50 is 1900 nM. On the same count and under the same terms, with `CCCCC1(CCCC)CCc2c(OCc3ccc4ccccc4n3)ccc(C)c2C1=O` [Example 39] the figure was 640 nM; with `CCCCC1(CCCC)CCc2c(OCc3nc4ccccc4s3)cccc2C1O` (stereo not drawn) [Example 11, 2,2-Dibutyl-5-(2-benzothiazolylmethoxy)-1,2,3,4-tetrahydro-1-naphthol], 50 nM; with `CCCCC1(CCCC)CCc2ccc(OCc3ccc4ccccc4n3)cc2C1O` (stereo not drawn) [Example 22, 2,2-Dibutyl-7-(2-quinolylmethoxy)-1,2,3,4-tetrahydro-1-naphthol hydrochloride], 860 nM. On the same count and under the same terms, for `CCCCC1(CCCC)CCc2c(OCc3ccc4ccccc4n3)ccc(F)c2C1O` (stereo not drawn) [Example 34, 2,2-Dibutyl-8-fluoro-5-(2-quinolylmethoxy)-1,2,3,4-tetrahydro-1-naphthol] the value was 2.2 nM; for `CCCCC1(CCCC)CCc2c(OCC3=C(C)C(=O)c4ccccc4C3=O)cccc2C1O` (stereo not drawn) [Example 27, 2,2-Dibutyl-5-[2-(3-methyl-1,4-naphthalenedionyl)methoxy]-1,2,3,4-tetrahydro-1-naphthol], 300 nM. Regarding `CCCCC1(CCCC)CCc2c(OCc3ccc4ccccc4n3)ccc(C)c2C1O` (stereo not drawn) [Example 35, 2,2-Dibutyl-8-methyl-5-(2-quinolylmethoxy)-1,2,3,4-tetrahydro-1-naphthol], the IC50 was 6.5 nM. For the compound `CCCCC1CCc2ccc(OCc3ccc4ccccc4n3)cc2C1O` (stereo not drawn) [Example 21, 2-butyl-7-(2-quinolylmethoxy)-1,2,3,4-tetrahydro-1-naphthol hydrochloride], the IC50 was 430 nM. Same read-out and setting: for `CC(C)CC1(CC(C)C)CCc2c(OCc3ccc4ccccc4n3)cccc2C1O` (stereo not drawn) [Example 37, 2,2-Diisobutyl-5-(2-quinolylmethoxy)-1,2,3,4-tetrahydro-1-naphthol] the value was 2.5 nM.

Take `CCCCC1(CCCC)CCc2ccc(OCc3ccc4ccccc4n3)cc2C1=O` [Example 19, 2,2-Dibutyl-3,4-dihydro-7-(2-quinolylmethoxy)-1(2H)-naphthalenone]: the IC50 worked out at 1100 nM. The same measure, in the same setting: with `CCCCCC1(CCCCC)CCc2c(OCc3ccc4ccccc4n3)cccc2C1O` (stereo not drawn) [Example 14, 2,2-Dipentyl-5-(2-quinolylmethoxy)-1,2,3,4-tetrahydro-1-naphthol] the figure was 42 nM; with `CCCCC1(CCCC)Cc2c(OCc3ccc4ccccc4n3)cccc2C1O` (stereo not drawn) [Example 15, 2,2-Dibutyl-4-(2-quinolylmethoxy)-1-indanol], 210 nM; with `CCCCC1(CCCC)CCc2c(OCc3ccc4ccccc4n3)cccc2C1=O` [Example 25, 2,2-Dibutyl-3,4-dihydro-5-(2-quinolylmethoxy)-(1(2H)-naphthalenone hydrochloride], 620 nM.
